Source: US6444617B1, “Fused-heterocycle dicarboxylic acid diamide derivatives or salts thereof, herbicide and usage thereof” (Nihon Nohyaku Co., Ltd., priority 1998, dated 2002)

Tests used:
Format in all cases: in vivo
[1] = test system: barnyard grass (Echinochloa crus-galli Beauv.); experiment: Test Example 1: herbicidal effect on paddy field weeds before emergence; conditions: Dosage 5 kg/ha
Method in brief: (§1)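 Seeds of both weeds, still ungerminated, in soil pots held under paddy conditions received a set dose of test solution as soil treatment. After twenty-one days, control relative to untreated pots was calculated and rated on a scoring scale.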

[2] = test system: bulrush (Scirpus juncoides Roxb.); experiment: as above; conditions: Dosage 5 kg/ha
Method in brief: as §1

[3] = test system: barnyard grass (Echinochloa crus-galli Beauv.); experiment: Test Example 2: herbicidal effect on paddy field weeds after emergence; conditions: Dosage 5 kg/ha; one-leaved stage; 21 days after treatment
Method in brief: (§2)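 Weeds were sown in 1/10000 are pots of soil flooded to paddy conditions and grown to the one-leaf stage, then the soil was treated with a solution of compound at a predetermined dosage.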

[4] = test system: bulrush (Scirpus juncoides Roxb.); experiment: as above; conditions: Dosage 5 kg/ha; one-leaved stage; 21 days after treatment
Method in brief: as §2

[5] = test system: monochoria (Monochoria vaginalis Presl); experiment: as above; conditions: Dosage 5 kg/ha; one-leaved stage; 21 days after treatment
Method in brief: as §2

[6] = test system: barnyard grass (Echinochloa crus-galli Beauv.), Ec; experiment: Test Example 3: herbicidal effect on upland weeds before emergence; conditions: dosage 5 kg/ha
Method in brief: (§3)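 Herbicidal activity was rated from kill rate determined 14 days post-spray, the compound having been applied pre-emergence as a liquid agent.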

[7] = test system: bird's eye speedwell (Veronica persica Poir.), Vp; experiment: as above; conditions: dosage 5 kg/ha
Method in brief: as §3

[8] = test system: cleavers (Galium aparine L.), Ga; experiment: as above; conditions: dosage 5 kg/ha
Method in brief: as §3

[9] = test system: cocklebur (Xanthium strumarium L.), Xs; experiment: as above; conditions: dosage 5 kg/ha
Method in brief: as §3

[10] = test system: forxtail grass (Alopecurus aequalis var. amurensis Ohwi), Am; experiment: as above; conditions: foxtail grass, dosage 5 kg/ha
Method in brief: as §3

[11] = test system: velvetleaf (Abutilon theophtasti L.), At; experiment: as above; conditions: dosage 5 kg/ha
Method in brief: as §3

soybean plant (So) = experiment: Test Example 3: phytotoxicity to upland crop plants, treatment before emergence; conditions: dosage 5 kg/ha
Method in brief: (§4)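 Pre-emergence spray, test compound at prescribed conc. in liquid formulation; crop injury (soybean, wheat) read at day 14, scored by criterion.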

wheat (Wh) = experiment: as above; conditions: dosage 5 kg/ha
Method in brief: as §4

[12] = test system: barnyard grass (Echinochloa crus-galli Beauv.), Ec; experiment: Test Example 4: herbicidal effect on upland weeds after emergence; conditions: dosage 5 kg/ha; sprayed after emergence; judged 14 days after treatment
Method in brief: (§5)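 Post-emergence foliar spray, compound at prescribed concentration, applied at defined leaf stages; weeds plus soybean/wheat grown in soil vats. Read-out: weed-killing rate and crop injury, 14 d post-treatment.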

[13] = test system: bird's eye speedwell (Veronica persica Poir.), Vp; experiment: as above; conditions: dosage 5 kg/ha; sprayed after emergence; judged 14 days after treatment
Method in brief: as §5

[14] = test system: cleavers (Galium aparine L.), Ga; experiment: as above; conditions: dosage 5 kg/ha; sprayed after emergence; judged 14 days after treatment
Method in brief: as §5

[15] = test system: cocklebur (Xanthium strumarium L.), Xs; experiment: as above; conditions: dosage 5 kg/ha; sprayed after emergence; judged 14 days after treatment
Method in brief: as §5

[16] = test system: forxtail grass (Alopecurus aequalis var. amurensis Ohwi), Am; experiment: as above; conditions: dosage 5 kg/ha; sprayed after emergence; judged 14 days after treatment
Method in brief: as §5

[17] = test system: velvetleaf (Abutilon theophtasti L.), At; experiment: as above; conditions: dosage 5 kg/ha; sprayed after emergence; judged 14 days after treatment
Method in brief: as §5

soybean plant = experiment: Test Example 4: phytotoxicity to upland crop plants, treatment after emergence; conditions: dosage 5 kg/ha, sprayed after emergence, judged 14 days after treatment
Method in brief: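 Post-emergence foliar spray at a prescribed concentration, applied once the sown weeds and soybean reached defined leaf stages in soil vats; herbicidal effect and soybean injury scored after 14 days.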

wheat = experiment: as above; conditions: dosage 5 kg/ha, sprayed after emergence, judged 14 days after treatment
Method in brief: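 Upland weeds and crop plants (soybean, wheat) are grown from seed in soil until they reach given leaf stages, then treated by spraying with the compound-containing agent; effects are judged two weeks later.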

Structure (SMILES)	Pre-emergence treatment Barnyard grass (herbicidal effect) [1]	Pre-emergence treatment Bulrush (herbicidal effect) [2]	Post-emergence treatment Barnyard grass (herbicidal effect) [3]	Post-emergence treatment Bulrush (herbicidal effect) [4]	Post-emergence treatment Monochoria (herbicidal effect) [5]	Herbicidal effect Ec [6]	Herbicidal effect Vp [7]	Herbicidal effect Ga [8]	Herbicidal effect Xs [9]	Herbicidal effect Am [10]	Herbicidal effect At [11]	Phytotoxicity So (soybean plant (So))	Phytotoxicity Wh (wheat (Wh))	Herbicidal effect Ec [12]	Herbicidal effect Vp [13]	Herbicidal effect Ga [14]	Herbicidal effect Xs [15]	Herbicidal effect Am [16]	Herbicidal effect At [17]	Phytotoxicity So (soybean plant)	further results
CCCNC(=O)c1nc2ccoc2cc1C(=O)Nc1c(CC)ccc(Cl)c1CC [compound 847]	5 (Weed-killing rate is 100%.)	5 (Weed-killing rate is 100%.)	5 (Weed-killing rate is 100%.)	5 (Weed-killing rate is 100%.)	5 (Weed-killing rate is 100%.)	5 (Weed-killing rate is 100%.)	5 (Weed-killing rate is 100%.)	5 (Weed-killing rate is 100%.)	5 (Weed-killing rate is 100%.)	5 (Weed-killing rate is 100%.)	5 (Weed-killing rate is 100%.)	4 (Crop-killing rate is 90-99%.)	5 (Crop-killing rate is 100%.)	5 (Weed-killing rate is 100%.)	5 (Weed-killing rate is 100%.)	5 (Weed-killing rate is 100%.)	5 (Weed-killing rate is 100%.)	5 (Weed-killing rate is 100%.)	5 (Weed-killing rate is 100%.)	4 (Crop-killing rate is 90-99%.)	Phytotoxicity Wh (wheat): 5 (Crop-killing rate is 100%.)
CCNC(=O)c1nc2ccsc2cc1C(=O)Nc1c(CC)ccc(Cl)c1CC [compound 870]	5 (Weed-killing rate is 100%.)	5 (Weed-killing rate is 100%.)	5 (Weed-killing rate is 100%.)	5 (Weed-killing rate is 100%.)	5 (Weed-killing rate is 100%.)	5 (Weed-killing rate is 100%.)	5 (Weed-killing rate is 100%.)	5 (Weed-killing rate is 100%.)	5 (Weed-killing rate is 100%.)	5 (Weed-killing rate is 100%.)	5 (Weed-killing rate is 100%.)	3 (Crop-killing rate is 70-89%.)	4 (Crop-killing rate is 90-99%.)	5 (Weed-killing rate is 100%.)	5 (Weed-killing rate is 100%.)	5 (Weed-killing rate is 100%.)	5 (Weed-killing rate is 100%.)	5 (Weed-killing rate is 100%.)	5 (Weed-killing rate is 100%.)	3 (Crop-killing rate is 70-89%.)	Phytotoxicity Wh (wheat): 4 (Crop-killing rate is 90-99%.)
CCCNC(=O)c1nc2ccsc2cc1C(=O)Nc1c(CC)ccc(Cl)c1CC [compound 871]	5 (Weed-killing rate is 100%.)	5 (Weed-killing rate is 100%.)	5 (Weed-killing rate is 100%.)	5 (Weed-killing rate is 100%.)	5 (Weed-killing rate is 100%.)	5 (Weed-killing rate is 100%.)	5 (Weed-killing rate is 100%.)	5 (Weed-killing rate is 100%.)	5 (Weed-killing rate is 100%.)	5 (Weed-killing rate is 100%.)	5 (Weed-killing rate is 100%.)	4 (Crop-killing rate is 90-99%.)	5 (Crop-killing rate is 100%.)	5 (Weed-killing rate is 100%.)	5 (Weed-killing rate is 100%.)	5 (Weed-killing rate is 100%.)	5 (Weed-killing rate is 100%.)	5 (Weed-killing rate is 100%.)	5 (Weed-killing rate is 100%.)	4 (Crop-killing rate is 90-99%.)	Phytotoxicity Wh (wheat): 5 (Crop-killing rate is 100%.)
Cc1c(Cl)cccc1NC(=O)c1cc2sccc2nc1C(=O)NC1CCCC1 [compound 892]	5 (Weed-killing rate is 100%.)	5 (Weed-killing rate is 100%.)	5 (Weed-killing rate is 100%.)	5 (Weed-killing rate is 100%.)	5 (Weed-killing rate is 100%.)	5 (Weed-killing rate is 100%.)	5 (Weed-killing rate is 100%.)	5 (Weed-killing rate is 100%.)	4 (Weed-killing rate is 90-99%.)	5 (Weed-killing rate is 100%.)	5 (Weed-killing rate is 100%.)	3 (Crop-killing rate is 70-89%.)	4 (Crop-killing rate is 90-99%.)	5 (Weed-killing rate is 100%.)	5 (Weed-killing rate is 100%.)	4 (Weed-killing rate is 90-99%.)	4 (Weed-killing rate is 90-99%.)	5 (Weed-killing rate is 100%.)	5 (Weed-killing rate is 100%.)	3 (Crop-killing rate is 70-89%.)	Phytotoxicity Wh (wheat): 4 (Crop-killing rate is 90-99%.)
